These results are taken from ChEMBL document CHEMBL1201862, “PubChem BioAssay data set” (2004).

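Assay format: 96-well plates, 48-hour exposure. GI50 marks 50% less growth.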 Active and inactive are the calls of the source. Rule as the data show it: active = GI50 up to about 1.1 µM and inactive = higher.

Some test systems named below: UO-31; HOP-92; 786-0; CCRF-CEM; HCT-116; KM12; SW-620; OVCAR-4; RXF 393; BT-549; U-251; NCI/ADR-RES; IGROV-1; COLO 205; SNB-75; HCT-15; MDA-MB-231; MDA-MB-435; T47D; NCI-H522.
Holding throughout (experiment): NCI-60 cell line screen, 48 h

Turning to `O=c1n(-c2ccccc2)c(=O)n2c(-c3ccccc3)c(-c3ccccc3)n12`, the GI50 with UO-31 is 66.4 µM (inactive); in the test with HOP-92, > 100 µM (inactive); with 786-0, 80.2 µM (inactive); with CCRF-CEM, 31.4 µM (inactive); in the test on HCT-116, 37.4 µM (inactive); in the test with KM12, > 100 µM (inactive). The GI50 in the test on SW-620 was > 100 µM (inactive); with OVCAR-4 it was > 100 µM (inactive); with RXF 393, 15.9 µM (inactive); in the test on BT-549, > 100 µM (inactive); in the test on U-251, > 100 µM (inactive); with NCI/ADR-RES, > 100 µM (inactive). Moreover, the GI50 in the test with IGROV-1 is > 100 µM (inactive); in the test with COLO 205, 91.6 µM (inactive); with SNB-75, 76.9 µM (inactive); in the test with HCT-15, 82.4 µM; in the test with MDA-MB-231 it was > 100 µM (inactive).
For `O=C(OCCN=c1c2ccccc2ccc2ccccc12)c1ccccc1`, the GI50 in the test with UO-31 was 56 µM (inactive); with HOP-92 it was 75 µM (inactive); in the test on 786-0 it was 87.7 µM (inactive); in the test on CCRF-CEM, 40.8 µM (inactive); with HCT-116 it was 42.2 µM (inactive); in the test with KM12, 86.5 µM (inactive). Besides, the GI50 in the test with SW-620 was 74 µM (inactive); with OVCAR-4, 42.3 µM (inactive); in the test on RXF 393, > 100 µM (inactive); with BT-549, 42.2 µM (inactive); with U-251, 56.4 µM (inactive); in the test with NCI/ADR-RES it was 96.4 µM (inactive). The GI50 with IGROV-1 was 72.1 µM (inactive); with COLO 205, 92.5 µM (inactive); in the test on MDA-MB-435 it was > 100 µM (inactive); in the test on SNB-75, > 100 µM (inactive); in the test on HCT-15 it was 63.4 µM; in the test on MDA-MB-231 it was 91.8 µM (inactive).
Take `O=c1[nH]nc(Nc2ccccc2)c2nnn(C3CCCCC3)c12`: the GI50 in the test with UO-31, in the test with HOP-92, in the test on 786-0, with CCRF-CEM, in the test on HCT-116 and in the test with KM12 was > 100 µM (inactive) each time. Moreover, the GI50 in the test on OVCAR-4, in the test with BT-549, in the test with U-251, in the test with NCI/ADR-RES, in the test with COLO 205 and in the test with MDA-MB-435 was > 100 µM (inactive) throughout. Moreover, the GI50 with HCT-15 was above 100 µM; in the test with MDA-MB-231, > 100 µM (inactive).
Regarding `COC(=O)C1(Cc2ccc3c(c2)CCC3)Cc2ccccc2C1O` (stereo not drawn), the GI50 is 15.7 µM (inactive) in the test with UO-31; 16.3 µM (inactive) in the test with 786-0; 13.1 µM (inactive) in the test on CCRF-CEM; 17.4 µM (inactive) in the test with HCT-116; 22.6 µM (inactive) in the test on KM12; 17.3 µM (inactive) in the test with SW-620. Besides, the GI50 in the test with OVCAR-4 was 13.9 µM (inactive); in the test with T47D it was 22.6 µM (inactive); in the test on BT-549, 18.7 µM (inactive); with U-251, 16.8 µM (inactive); with NCI/ADR-RES, 18.7 µM (inactive); in the test with IGROV-1 it was 21.6 µM (inactive). Moreover, the GI50 was 17.3 µM (inactive) in the test with COLO 205; 15.9 µM (inactive) in the test with NCI-H522; 18.7 µM (inactive) with MDA-MB-435; > 10 µM (inactive) in the test with SNB-75; 21.5 µM in the test on HCT-15; 21.3 µM (inactive) in the test with MDA-MB-231.
Turning to `CN(C)CCOc1ccc2[nH]c(C(=O)N3CC(CCl)c4c3cc([N+](=O)[O-])c3ccccc43)cc2c1` (stereo not drawn), the GI50 in the test with UO-31 is 15.1 µM (inactive); in the test with 786-0, 2.1 µM (inactive); with CCRF-CEM, 1.58 µM (inactive); with HCT-116 it was 1.67 µM (inactive); in the test with KM12, 1.71 µM (inactive); with SW-620, 2.17 µM (inactive). The GI50 with RXF 393 is 1.55 µM (inactive); in the test on T47D, 1.89 µM (inactive); with BT-549 it was 2.3 µM (inactive); in the test on U-251 it was 2.06 µM (inactive); in the test with NCI/ADR-RES it was 1.65 µM (inactive); with IGROV-1 it was 2.14 µM (inactive). Besides, the GI50 in the test on COLO 205 was 3.25 µM (inactive); in the test with MDA-MB-435 it was 2 µM (inactive); with SNB-75, 1.85 µM (inactive); in the test on HCT-15, 1.86 µM; with MDA-MB-231, 3.23 µM (inactive).
In the case of `CC(C)(C)OC(=O)N(CCCN)CCCCN(CCCN)C(=O)OC(C)(C)C`, the GI50 with UO-31, in the test with HOP-92, in the test with 786-0, with CCRF-CEM, in the test on HCT-116 and in the test on KM12 was > 100 µM (inactive) each time. Further, the GI50 with SW-620, in the test with OVCAR-4, with RXF 393, with T47D, in the test on BT-549 and with U-251 was > 100 µM (inactive) in each case. Further, the GI50 with NCI/ADR-RES, in the test with IGROV-1, in the test on COLO 205, in the test with NCI-H522, in the test with MDA-MB-435 and in the test on SNB-75 was > 100 µM (inactive) in each case. Besides, the GI50 in the test on HCT-15 was above 100 µM.
On to `O=[N+]([O-])/C(C(Cl)=C(Cl)Cl)=C(/Cl)Sc1ccccc1`, for which the GI50 with UO-31 was 1.42 µM (inactive); in the test with HOP-92 it was 2.05 µM (inactive); with 786-0, 1.31 µM (inactive); in the test on CCRF-CEM, 0.185 µM (active); with HCT-116, 1.31 µM (inactive); in the test with KM12, 17.9 µM (inactive). Further, the GI50 in the test on SW-620 is 0.307 µM (active); with OVCAR-4, 1.62 µM (inactive); in the test on RXF 393, 2.62 µM (inactive); in the test with T47D, 3.03 µM (inactive); in the test with U-251, 2.25 µM (inactive); with NCI/ADR-RES, 1.08 µM (active). In addition, the GI50 is 2.01 µM (inactive) in the test with IGROV-1; 1.23 µM (inactive) in the test with COLO 205; 1.23 µM (inactive) in the test on NCI-H522; 1.86 µM (inactive) in the test with MDA-MB-435; 15 µM (inactive) in the test on SNB-75; 2.15 µM with HCT-15. Moreover, in the test on MDA-MB-231, the GI50 is 1.86 µM (inactive).
As for `C[Si](C)(OCCS(=O)(=O)O)OC(=C1S(=O)(=O)OCCOS1(=O)=O)c1cccc2ccccc12`, the GI50 in the test with UO-31, in the test on HOP-92, in the test with 786-0, in the test with CCRF-CEM, with HCT-116 and in the test on KM12 was > 100 µM (inactive) throughout. Further, the GI50 in the test on SW-620 is > 100 µM (inactive); in the test on OVCAR-4, > 100 µM (inactive); with RXF 393, 37.2 µM (inactive); in the test with BT-549, > 100 µM (inactive); in the test on U-251 it was > 100 µM (inactive); in the test with NCI/ADR-RES it was > 100 µM (inactive). The GI50 in the test on IGROV-1 was 72.9 µM (inactive); with COLO 205, > 100 µM (inactive); in the test with MDA-MB-435 it was > 100 µM (inactive); in the test on SNB-75, > 100 µM (inactive); with HCT-15, above 100 µM; in the test with MDA-MB-231 it was > 100 µM (inactive).
As to `CC(=O)c1c2c(cc3c1CC1(Cc4ccccc4C1=O)C3)CCC2` (stereo not drawn), the GI50 in the test on UO-31 is 21.2 µM (inactive); in the test on HOP-92 it was 12.2 µM (inactive); in the test with 786-0 it was 22.3 µM (inactive); in the test with CCRF-CEM, 16.8 µM (inactive); with HCT-116, 16.7 µM (inactive); in the test on KM12, 16.2 µM (inactive). In addition, the GI50 in the test on SW-620 is 32.3 µM (inactive); with OVCAR-4, 75.2 µM (inactive); in the test with RXF 393 it was 12 µM (inactive); with T47D, 6.87 µM (inactive); with U-251, 24.4 µM (inactive); in the test with NCI/ADR-RES, 14.5 µM (inactive). In addition, the GI50 is 16.3 µM (inactive) with IGROV-1; 14.3 µM (inactive) in the test on COLO 205; 25.5 µM (inactive) in the test with NCI-H522; 22.3 µM (inactive) in the test on MDA-MB-435; 32 µM (inactive) with SNB-75; 32.1 µM in the test with HCT-15. In the test on MDA-MB-231, the GI50 is 22.3 µM (inactive).
As to `NCCCCNCCCNC(=O)c1csc(-c2nc(CCN)sc2Cl)n1`, the GI50 in the test with UO-31 was > 100 µM (inactive); in the test on HOP-92 it was 8.85 µM (inactive); in the test with 786-0, > 100 µM (inactive); with CCRF-CEM, > 100 µM (inactive); in the test on HCT-116 it was > 100 µM (inactive); in the test with KM12, > 100 µM (inactive). Also, the GI50 in the test on SW-620, in the test on RXF 393, in the test with T47D, with BT-549, with U-251 and in the test on NCI/ADR-RES was > 100 µM (inactive) each time. For the same compound, the GI50 in the test with IGROV-1 was > 100 µM (inactive); with COLO 205 it was > 100 µM (inactive); with MDA-MB-435 it was > 100 µM (inactive); with SNB-75 it was > 100 µM (inactive); in the test with HCT-15, above 100 µM.
Consider `Clc1ccc(OCc2nnc(CCCCCCCCc3nnc(COc4ccc(Cl)cc4)o3)o2)cc1`, for which the GI50 is > 100 µM (inactive) in the test with UO-31; 31.7 µM (inactive) in the test with HOP-92; 31.8 µM (inactive) in the test with 786-0; 10.5 µM (inactive) with HCT-116; > 100 µM (inactive) in the test on KM12; > 100 µM (inactive) in the test with SW-620. Moreover, the GI50 with OVCAR-4 is > 100 µM (inactive); in the test with RXF 393, 47.3 µM (inactive); in the test on BT-549, > 100 µM (inactive); in the test on U-251 it was 29.4 µM (inactive); in the test on NCI/ADR-RES, > 100 µM (inactive); with COLO 205 it was > 100 µM (inactive). The GI50 with NCI-H522 was 31.8 µM (inactive); in the test with MDA-MB-435, > 100 µM (inactive); in the test on SNB-75 it was 68.2 µM (inactive); in the test on HCT-15, above 100 µM; in the test with MDA-MB-231, 48 µM (inactive).
